Reference: US20160176867A1, “MODIFIED BET-PROTEIN-INHIBITING DIHYDROQUINOXALINONES AND DIHYDROPYRIDOPYRAZINONES” (BAYER PHARMA AKTIENGESELLSCHAFT, priority 2013, published 2016)

Assays:
[1] = system: MOLP-8 cells; experiment: Cell proliferation assay (alamarBlue), MOLP-8; assay type: cell-based; settings: Homo sapiens; MOLP-8 (multiple myeloma), 120 hours
How it was run: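 MOLP-8 cells plated at 4000 cells/well in RPMI1640 with 20% FCS, read after overnight culture, then treated with dilutions from 1E-5 to 1E-8 M for 120 hours at 37° C. Viability by alamarBlue fluorescence (ex 530/em 590 nm); initial reads subtracted, compared with buffer-treated cells, and IC50 calculated for 50% proliferation inhibition.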

[2] = system: CHL-1 cells; experiment: Cell proliferation assay (alamarBlue), CHL-1; assay type: cell-based; settings: Homo sapiens; CHL-1 (melanoma, BRAF wild-type), 96 hours
How it was run: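 Human melanoma CHL-1 cells, 1000/well in DMEM with glutamine and 10% FCS, treated after overnight at 37°C with 1E-5 to 1E-8 M dilutions for 96 hours. alamarBlue fluorescence (ex 530/em 590 nm); baseline subtracted, compared with buffer-treated cells to give IC50.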

[3] = system: MOLM-13 cells; experiment: Cell proliferation assay (alamarBlue), MOLM-13; assay type: cell-based; settings: Homo sapiens; MOLM-13 (acute myeloid leukaemia), 96 hours
How it was run: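 Cells in RPMI1640 with 10% FCS, read by alamarBlue fluorescence (ex 530, em 590 nm) after overnight plating and again after 96 h compound exposure at 37° C (1E-5 to 1E-8 M). Baseline-subtracted signal compared with buffer-treated cells to derive IC50.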

[4] = molecular target: T1, BRD4 bromo domain 2 [BRD4(2)] (Homo sapiens, UniProt O60885); experiment: BRD4/acetylated peptide H4 binding assay (TR-FRET), BRD4 bromo domain 2; settings: inhibition of BRD4(2)/Ac-H4 peptide interaction
T1 construct: N-terminally His6-tagged BRD4(2) (amino acids 357-445); made in house; host or cells: E. coli
How it was run: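 IC50 comes from a 4-parameter fit over 0.1 nM–20 μM in duplicate, normalised to DMSO and no-protein controls. TR-FRET (Eu-streptavidin/anti-His-XL665) tracks His-tagged BRD4(2) 357-445 at 100 nM binding Ac-H4 peptide in HEPES pH 7.5 buffer. Incubation was 1 h at 22 °C, then at 4 °C ≥3 h up to overnight.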

IC50 [3] [nM]	IC50 [4] [nM]	SMILES	IC50 [1] [nM]	IC50 [2] [nM]
> 10000	188	C[C@@H]1C(=O)N(C)c2ccc(Nc3cccc(C(=O)N[C@H]4CC[C@H](N5CCN(CC6CC6)CC5)CC4)c3)nc2N1C1CCNCC1 [Example 131, N-{trans-4-[4-(cyclo-propylmethyl)piperazin-1-yl]cyclohexyl}-3-{[(3R)-1,3-dimethyl-2-oxo-4-(piperidin-4-yl)-1,2,3,4-tetrahydropyrido[2,3-b]pyrazin-6-yl]amino}benzamide]	> 20000	> 20000
223	115	COCCN1c2nc(Nc3cccc(S(=O)(=O)N4CCOCC4)c3)ccc2N(C)C(=O)[C@H]1C (stereo in doubt) [Example 111, (3R)-4-(2-methoxyethyl)-1,3-dimethyl-6-{[3-(morpholin-4-ylsulphonyl)phenyl]amino}-3,4-dihydropyrido[2,3-b]pyrazin-2(1H)-one]	106	85
679	174	COc1ccc(C(=O)NC2CCN(C)CC2)cc1Nc1ccc2c(n1)N(C1CCOCC1)[C@H](C)C(=O)N2C [Example 16, 3-{[(3R)-1,3-Dimethyl-2-oxo-4-(tetrahydro-2H-pyran-4-yl)-1,2,3,4-tetrahydropyrido[2,3-b]pyrazin-6-yl]amino}-4-methoxy-N-(1-methylpiperidin-4-yl)benzamide]	306	346
213	121	C[C@@H]1C(=O)N(C)c2ccc(Nc3cccc(S(=O)(=O)N4CCN(C)CC4)c3)nc2N1C1CCN(C)CC1 [Example 50, (3R)-1,3-dimethyl-6-({3-[(4-methylpiperazin-1-yl)sulphonyl]phenyl}-amino)-4-(1-methyl-piperidin-4-yl)-3,4-dihydropyrido[2,3-b]pyrazin-2(1H)-one]	140	118
